The target in the data set is ATXN3. Nature of the data set: mouse, dose not given. Particulars: ASO.

HELM strings list units from the 5' end as sugar, base in round brackets, then linkage (d deoxyribose, r ribose, m 2'-O-methyl, p phosphodiester). Strings are as the collection lists them; they lack the last nucleoside at the 3' end of the tested compound. [moe] = 2'-O-(2-methoxyethyl) (MOE); [sp] = phosphorothioate linkage; [m5C] = 5-methylcytosine

The results in this text go back to the OligoGym collection.

In turn, “RNA1{[moe](G)[sp].[moe](G)p.[moe]([m5C])p.[moe](A)p.[moe]([m5C])p.d(A)[sp].d(T)[sp].d(T)[sp].d(T)[sp].d(T)[sp].d(T)[sp].d(T)[sp].d(A)[sp].d(T)[sp].d(A)[sp].[moe](G)p.[moe](A)p.[moe](G)[sp].[moe](T)}$$$$ (last 3' nucleoside missing)” registered a 3 h FOB score of 1.25 score 0-7. Turning to “RNA1{[moe](G)[sp].[moe](T)p.[moe](G)p.[moe](A)p.[moe]([m5C])[sp].d(T)[sp].d(A)[sp].d(A)[sp].d([m5C])[sp].d(A)[sp].d(G)[sp].d(T)[sp].d(A)[sp].d(T)[sp].d(G)[sp].[moe](T)p.[moe](T)p.[moe](T)[sp].[moe](T)}$$$$ (last 3' nucleoside missing)”, the 3 h FOB score was 2.25 score 0-7.

For the substance “RNA1{[moe](G)[sp].[moe](T)p.[moe](G)p.[moe]([m5C])p.[moe](T)[sp].d(A)[sp].d(T)[sp].d(A)[sp].d(A)[sp].d(T)[sp].d(T)[sp].d([m5C])[sp].d(T)[sp].d(T)[sp].d(G)[sp].[moe]([m5C])p.[moe](T)p.[moe](T)[sp].[moe]([m5C])}$$$$ (last 3' nucleoside missing)”, the 3 h FOB score is 1.25 score 0-7. In turn, “RNA1{[moe](G)[sp].[moe](T)p.[moe](G)p.[moe]([m5C])p.[moe](T)[sp].d(T)[sp].d(T)[sp].d(T)[sp].d([m5C])[sp].d(A)[sp].d(T)[sp].d(A)[sp].d([m5C])[sp].d([m5C])[sp].d(A)[sp].[moe](G)p.[moe](G)p.[moe](T)[sp].[moe]([m5C])}$$$$ (last 3' nucleoside missing)” came in with a 3 h FOB score of 1 score 0-7. “RNA1{[moe](G)[sp].[moe](T)p.[moe](G)p.[moe]([m5C])p.[moe](T)p.d(T)[sp].d(T)[sp].d(T)[sp].d([m5C])[sp].d(A)[sp].d(T)[sp].d(A)[sp].d([m5C])[sp].d([m5C])[sp].d(A)[sp].[moe](G)p.[moe](G)p.[moe](T)[sp].[moe]([m5C])}$$$$ (last 3' nucleoside missing)” had a 3 h FOB score of 1.5 score 0-7.

“RNA1{[moe](G)[sp].[moe](T)p.[moe](T)[sp].[moe](A)[sp].[moe](A)[sp].d(T)[sp].d(A)[sp].d([m5C])[sp].d(T)[sp].d(T)[sp].d(T)[sp].d(T)[sp].d(T)[sp].d([m5C])[sp].d([m5C])[sp].[moe](A)[sp].[moe](G)p.[moe]([m5C])[sp].[moe]([m5C])}$$$$ (last 3' nucleoside missing)” gave a 3 h FOB score of 1 score 0-7. “RNA1{[moe](G)[sp].[moe](T)p.[moe](T)p.[moe](A)p.[moe](A)p.[moe](T)p.d(A)[sp].d([m5C])[sp].d(T)[sp].d(T)[sp].d(T)[sp].d(T)[sp].d(T)[sp].d([m5C])[sp].d([m5C])[sp].d(A)[sp].[moe](G)p.[moe]([m5C])[sp].[moe]([m5C])}$$$$ (last 3' nucleoside missing)” showed a 3 h FOB score of 1 score 0-7. “RNA1{[moe](G)[sp].[moe](T)p.[moe](T)p.[moe](A)p.[moe](A)p.d(T)[sp].d(A)[sp].d([m5C])[sp].d(T)[sp].d(T)[sp].d(T)[sp].d(T)[sp].d(T)[sp].d([m5C])[sp].d([m5C])[sp].[moe](A)p.[moe](G)p.[moe]([m5C])[sp].[moe]([m5C])}$$$$ (last 3' nucleoside missing)” came in with a 3 h FOB score of 1 score 0-7. In turn, “RNA1{[moe](G)[sp].[moe](T)p.[moe](T)p.[moe]([m5C])p.[moe](A)p.[moe](T)p.d(A)[sp].d(T)[sp].d([m5C])[sp].d([m5C])[sp].d(T)[sp].d(T)[sp].d(T)[sp].d(A)[sp].d(A)[sp].d([m5C])[sp].[moe]([m5C])p.[moe]([m5C])[sp].[moe](A)}$$$$ (last 3' nucleoside missing)” came in with a 3 h FOB score of 0.25 score 0-7.

Consider “RNA1{[moe](G)[sp].[moe](T)p.[moe](T)p.[moe]([m5C])p.[moe]([m5C])p.d(A)[sp].d(G)[sp].d(A)[sp].d(T)[sp].d([m5C])[sp].d(A)[sp].d([m5C])[sp].d([m5C])[sp].d(A)[sp].d(T)[sp].[moe]([m5C])p.[moe](T)p.[moe](T)[sp].[moe](T)}$$$$ (last 3' nucleoside missing)”, for which the 3 h FOB score was 3.5 score 0-7. For “RNA1{[moe](G)[sp].[moe]([m5C])[sp].[moe](A)p.[moe]([m5C])p.[moe]([m5C])[sp].d(A)[sp].d(T)[sp].d(A)[sp].d(T)[sp].d(A)[sp].d(T)[sp].d(A)[sp].d(T)[sp].d([m5C])[sp].d(T)[sp].[moe]([m5C])p.[moe](A)p.[moe](G)[sp].[moe](A)}$$$$ (last 3' nucleoside missing)” the value was 1 score 0-7.

As for “RNA1{[moe](G)[sp].[moe]([m5C])[sp].[moe](T)p.[moe]([m5C])p.[moe](A)[sp].d(T)[sp].d(T)[sp].d(T)[sp].d(A)[sp].d(T)[sp].d(T)[sp].d([m5C])[sp].d(T)[sp].d([m5C])[sp].d(A)[sp].[moe](A)p.[moe](G)p.[moe](T)[sp].[moe](A)}$$$$ (last 3' nucleoside missing)”, the 3 h FOB score came out at 1 score 0-7.

In the case of “RNA1{[moe](G)[sp].[moe]([m5C])p.[moe](A)[sp].[moe]([m5C])[sp].[moe]([m5C])[sp].d(A)[sp].d(T)[sp].d(A)[sp].d(T)[sp].d(A)[sp].d(T)[sp].d(A)[sp].d(T)[sp].d([m5C])[sp].d(T)[sp].[moe]([m5C])[sp].[moe](A)p.[moe](G)[sp].[moe](A)}$$$$ (last 3' nucleoside missing)”, the 3 h FOB score was determined as 0 score 0-7.

For “RNA1{[moe](G)[sp].[moe]([m5C])p.[moe](A)p.[moe](T)p.[moe](A)[sp].d(T)[sp].d(T)[sp].d(G)[sp].d(G)[sp].d(T)[sp].d(T)[sp].d(T)[sp].d(T)[sp].d([m5C])[sp].[moe](T)p.[moe]([m5C])p.[moe](A)[sp].[moe](T)}$$$$ (last 3' nucleoside missing)”, the 3 h FOB score amounted to 5.5 score 0-7. Under “RNA1{[moe](G)[sp].[moe]([m5C])p.[moe](A)p.[moe](T)p.[moe](A)[sp].d(T)[sp].d(T)[sp].d(G)[sp].d(G)[sp].d(T)[sp].d(T)[sp].d(T)[sp].d(T)[sp].d([m5C])[sp].d(T)[sp].[moe]([m5C])p.[moe](A)p.[moe](T)p.[moe](T)}$$$$ (last 3' nucleoside missing)” stands 3 score 0-7; under “RNA1{[moe](G)[sp].[moe]([m5C])p.[moe](A)p.[moe](T)p.[moe](A)p.[moe](T)p.d(T)[sp].d(G)[sp].d(G)[sp].d(T)[sp].d(T)[sp].d(T)[sp].d(T)[sp].d([m5C])[sp].d(T)[sp].d([m5C])[sp].[moe](A)p.[moe](T)[sp].[moe](T)}$$$$ (last 3' nucleoside missing)”, 3 score 0-7; under “RNA1{[moe](G)[sp].[moe]([m5C])p.[moe](A)p.[moe](T)p.[moe](A)p.d(T)[sp].d(T)[sp].d(G)[sp].d(G)[sp].d(T)[sp].d(T)[sp].d(T)[sp].d(T)[sp].d([m5C])[sp].d(T)[sp].[moe]([m5C])p.[moe](A)p.[moe](T)[sp].[moe](T)}$$$$ (last 3' nucleoside missing)”, 2.5 score 0-7. Turning to “RNA1{[moe](G)[sp].[moe]([m5C])p.[moe](A)p.[moe](T)p.[moe](A)p.d(T)[sp].d(T)[sp].d(G)[sp].d(G)[sp].d(T)[sp].d(T)[sp].d(T)[sp].d(T)[sp].d([m5C])[sp].d(T)[sp].[moe]([m5C])p.[moe](A)p.[moe](T)p.[moe](T)}$$$$ (last 3' nucleoside missing)”, the 3 h FOB score stood at 3 score 0-7.
